In patent US10414811B2, “Protease-resistant lipidated GLP-1 analogs” (MEDIMMUNE LIMITED, priority 2015, dated 2019):
Where two headings read alike, the source gives them in different places. Numbered stars: 1 amine (or outer) side, 2 acyl side, 3 side chain; on linkers, the order of the positions; unused ones are H or OH. Square brackets hold non-standard residues; d marks the D form. Side chains are listed from the residue outwards. Peptide text beside a SMILES is read from it. * marks the point of attachment. γGlu = O=C(O)[C@H](CCC(=O)[*:2])N[*:1]; αMeF = C[C@](N)(Cc1ccccc1)C(=O)O; αMeK = C[C@](N)(CCCCN)C(=O)O; Lauroyl = CCCCCCCCCCCC(=O)*; αMeS = C[C@](N)(CO)C(=O)O; AEEA = NCCOCCOCC(=O)O; Aib = CC(C)(N)C(=O)O

What was measured:
Assay type in all cases: cell-based
[1] = biological target: T1, human GLP-1 receptor (GLP-1R) (Homo sapiens, UniProt P43220); assay: cAMP assay, human GLP-1R cells; conditions: tris-lipidated peptides
T1 construct: expressed in transfected cells
Method in brief: (§1)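 Peptide-stimulated cAMP measured by two-step HTRF after a 30 min room-temperature incubation with receptor-expressing cells (hGLP-1R, hGIPR at 1×10^5 cells/ml; hGCGR at 2×10^5 cells/ml). Duplicate dilutions; EC50 from 4-parameter logistic fit of % Delta F.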

[2] = biological target: T2, human glucagon receptor (GCGR) (Homo sapiens, UniProt P47871); assay: cAMP assay, human GCGR cells; conditions: tris-lipidated peptides; first replicate; read-out: Primary assay EC50 Gluc-R (n1)
T2 construct: expressed in transfected cells
Method in brief: as §1

[3] = biological target: T3, human glucose-dependent insulinotropic peptide receptor (GIPR) (Homo sapiens, UniProt P48546); assay: cAMP assay, human GIPR cells; conditions: tris-lipidated peptides
T3 construct: expressed in transfected cells
T3 sequence (P48546 22-466): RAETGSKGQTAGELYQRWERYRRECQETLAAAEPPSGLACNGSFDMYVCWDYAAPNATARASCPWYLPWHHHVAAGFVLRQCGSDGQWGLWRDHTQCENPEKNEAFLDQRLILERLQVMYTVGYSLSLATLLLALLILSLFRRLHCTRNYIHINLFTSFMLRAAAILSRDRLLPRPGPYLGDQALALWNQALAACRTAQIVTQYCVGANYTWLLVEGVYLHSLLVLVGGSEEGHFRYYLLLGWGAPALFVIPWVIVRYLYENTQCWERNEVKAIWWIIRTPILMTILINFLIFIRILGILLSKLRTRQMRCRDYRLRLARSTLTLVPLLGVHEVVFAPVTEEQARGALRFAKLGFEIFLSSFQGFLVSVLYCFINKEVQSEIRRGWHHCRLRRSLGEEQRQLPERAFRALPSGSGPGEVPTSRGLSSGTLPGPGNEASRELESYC
Method in brief: as §1

GLP-1R (INS1e assay) = biological target: T4, GLP-1R (INS1e assay) (Rattus norvegicus, UniProt P32301); assay: INS1e assay, cAMP activity at GLP-1R; conditions: tris-lipidated peptides
T4 construct: endogenous in cells; host or cells: INS-1E cells
T4 sequence (P32301 22-463): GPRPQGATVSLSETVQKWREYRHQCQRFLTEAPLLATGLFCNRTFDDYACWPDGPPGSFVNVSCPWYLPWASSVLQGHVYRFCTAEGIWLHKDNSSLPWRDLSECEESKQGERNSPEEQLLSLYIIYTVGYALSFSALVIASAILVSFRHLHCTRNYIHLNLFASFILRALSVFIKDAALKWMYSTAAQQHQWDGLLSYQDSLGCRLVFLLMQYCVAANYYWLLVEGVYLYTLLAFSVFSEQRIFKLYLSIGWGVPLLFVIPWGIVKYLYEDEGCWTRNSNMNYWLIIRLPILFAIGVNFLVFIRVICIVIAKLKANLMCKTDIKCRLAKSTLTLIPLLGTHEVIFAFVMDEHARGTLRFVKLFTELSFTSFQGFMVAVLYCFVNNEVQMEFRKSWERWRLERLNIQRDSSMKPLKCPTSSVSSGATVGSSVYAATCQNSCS
Method in brief: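 cAMP was quantified by two-step HTRF, using anti-cAMP cryptate donor and cAMP-d2 acceptor, each diluted 1/20 in conjugate and lysis buffer. EC50 values of the synthetic peptides were derived from the cAMP readout.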

[4] = mean of n1 and n2, read-out: Primary assay EC50 Mean pM GLP-1R
[5] = replicate n1, read-out: Primary assay EC50 GLP-1R n1
[6] = replicate n2, read-out: Primary assay EC50 GLP-1R n2
[7] = mean of n1 and n2, read-out: INS1e assay EC50 Mean pM GLP-1R
[8] = replicate n1, read-out: INS1e assay EC50 GLP-1R n1
[9] = replicate n2, read-out: INS1e assay EC50 GLP-1R n2

T1 sequence (P43220 24-463): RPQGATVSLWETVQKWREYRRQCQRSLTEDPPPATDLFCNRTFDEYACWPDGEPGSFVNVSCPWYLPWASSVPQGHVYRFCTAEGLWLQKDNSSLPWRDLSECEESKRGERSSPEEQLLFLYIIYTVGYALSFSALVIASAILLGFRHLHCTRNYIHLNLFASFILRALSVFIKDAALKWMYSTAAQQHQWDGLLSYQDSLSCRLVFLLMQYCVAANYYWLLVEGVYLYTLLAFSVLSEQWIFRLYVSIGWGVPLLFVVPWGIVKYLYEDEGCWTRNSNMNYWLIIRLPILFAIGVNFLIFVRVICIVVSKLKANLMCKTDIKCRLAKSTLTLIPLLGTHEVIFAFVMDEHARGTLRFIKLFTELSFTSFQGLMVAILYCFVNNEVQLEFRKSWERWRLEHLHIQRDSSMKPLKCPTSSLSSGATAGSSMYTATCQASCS
T2 sequence (P47871 26-477): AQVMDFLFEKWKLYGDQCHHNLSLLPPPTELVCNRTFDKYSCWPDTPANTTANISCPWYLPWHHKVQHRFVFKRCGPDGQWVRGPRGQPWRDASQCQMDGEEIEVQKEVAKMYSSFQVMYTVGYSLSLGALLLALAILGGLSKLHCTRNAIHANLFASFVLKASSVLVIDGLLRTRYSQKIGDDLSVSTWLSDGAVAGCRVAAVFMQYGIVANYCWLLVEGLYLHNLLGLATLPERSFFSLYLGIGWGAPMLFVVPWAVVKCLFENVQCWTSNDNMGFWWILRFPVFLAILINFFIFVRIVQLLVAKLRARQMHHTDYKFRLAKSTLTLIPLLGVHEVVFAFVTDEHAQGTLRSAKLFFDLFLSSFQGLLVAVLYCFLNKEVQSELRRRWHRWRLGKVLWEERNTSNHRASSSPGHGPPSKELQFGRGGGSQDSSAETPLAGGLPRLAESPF

EC50 [1, 4] | EC50 [1, 5] | EC50 [1, 6] | EC50 [2] | EC50 ([3]; second replicate, read-out: Primary assay EC50 GIP-R (n2)) | EC50 (GLP-1R (INS1e assay); [7]) | EC50 (GLP-1R (INS1e assay); [8]) | EC50 (GLP-1R (INS1e assay); [9]) | EC50 ([3]; first replicate, read-out: Primary assay EC50 GIP-R (n1)) | SMILES
41.4 pM | 36.3 pM | 46.4 pM | 20 nM | 20 nM | 3370 pM | 3070 pM | 3670 pM | – | CCCCCCCCCCCC(=O)N[C@@H](CCC(=O)NCCOCCOCC(=O)NCCOCCOCC(=O)NCCCC[C@H](NC(=O)[C@H](C)NC(=O)[C@@H](NC(=O)[C@H](Cc1ccccc1)NC(=O)[C@H](CCCCNC(=O)COCCOCCNC(=O)COCCOCCNC(=O)CC[C@H](NC(=O)CCCCCCCCCCC)C(=O)O)NC(=O)[C@](C)(CCCCN)NC(=O)[C@H](C)NC(=O)[C@H](C)NC(=O)[C@H](CCC(=O)O)NC(=O)CNC(=O)[C@H](CCC(=O)O)NC(=O)[C@H](CC(C)C)NC(=O)[C@H](Cc1ccc(O)cc1)NC(=O)[C@H](CO)NC(=O)[C@H](CO)NC(=O)[C@H](CCCCNC(=O)COCCOCCNC(=O)COCCOCCNC(=O)CC[C@H](NC(=O)CCCCCCCCCCC)C(=O)O)NC(=O)[C@H](CC(=O)O)NC(=O)[C@H](CO)NC(=O)[C@@H](NC(=O)[C@](C)(Cc1ccccc1)NC(=O)[C@H](CO)NC(=O)CNC(=O)[C@H](CCC(=O)O)NC(=O)C(C)(C)NC(=O)[C@@H](N)Cc1c[nH]cn1)[C@@H](C)O)[C@@H](C)CC)C(=O)N[C@H](C(=O)N[C@H](C(=O)N[C@@H](CCC(=O)O)C(=O)NCC(=O)NCC(N)=O)C(C)C)C(C)C)C(=O)O [compound 458] (H-H[Aib]EGS[αMeF]TSDK([AEEA-AEEA-γGlu-Lauroyl])SSYLEGEAA[αMeK]K([AEEA-AEEA-γGlu-Lauroyl])FIAK([AEEA-AEEA-γGlu-Lauroyl])VVEGG-NH2; N-terminus assumed)
22.4 pM | 17.2 pM | 27.5 pM | 20.2 nM | – | 3200 pM | 3860 pM | 2550 pM | 20.2 nM | CCCCCCCCCCCC(=O)N[C@@H](CCC(=O)NCCOCCOCC(=O)NCCOCCOCC(=O)NCCCC[C@H](NC(=O)[C@H](C)NC(=O)[C@@H](NC(=O)[C@H](Cc1ccccc1)NC(=O)[C@H](CCCCNC(=O)COCCOCCNC(=O)COCCOCCNC(=O)CC[C@H](NC(=O)CCCCCCCCCCC)C(=O)O)NC(=O)[C@](C)(CCCCN)NC(=O)[C@H](C)NC(=O)[C@H](C)NC(=O)[C@H](CCC(=O)O)NC(=O)CNC(=O)[C@H](CCC(=O)O)NC(=O)[C@H](CC(C)C)NC(=O)[C@H](CCCCNC(=O)COCCOCCNC(=O)COCCOCCNC(=O)CC[C@H](NC(=O)CCCCCCCCCCC)C(=O)O)NC(=O)[C@H](CO)NC(=O)[C@](C)(CO)NC(=O)[C@@H](NC(=O)[C@H](CC(=O)O)NC(=O)[C@H](CO)NC(=O)[C@@H](NC(=O)[C@](C)(Cc1ccccc1)NC(=O)[C@H](CO)NC(=O)CNC(=O)[C@H](CCC(=O)O)NC(=O)C(C)(C)NC(=O)[C@@H](N)Cc1c[nH]cn1)[C@@H](C)O)C(C)C)[C@@H](C)CC)C(=O)N[C@H](C(=O)N[C@H](C(=O)N[C@@H](CCC(=O)O)C(=O)NCC(=O)NCC(N)=O)C(C)C)C(C)C)C(=O)O [compound 466] (H-H[Aib]EGS[αMeF]TSDV[αMeS]SK([AEEA-AEEA-γGlu-Lauroyl])LEGEAA[αMeK]K([AEEA-AEEA-γGlu-Lauroyl])FIAK([AEEA-AEEA-γGlu-Lauroyl])VVEGG-NH2; N-terminus assumed)
